Reference: patent US5328902A, “7-(substituted)-9-[(substituted glycyl)amido]-6-demethyl-6-deoxytetracyclines” (American Cyanamid Co., priority 1992, dated 1994)
≈ marks a conversion by molar mass, not a printed value. Structures can show the parent of a compound that is named as a salt.

Tests used:
Format in all cases: cell-based
E. coli UBMS 88-1 Tet B = assay: microbe, parasite or virus in culture; settings: E. coli UBMS 88-1 Tet B; 18 hours at 35° C.
[1] = tested on: E. coli MC 4100 Tet sens.; assay: MIC, agar dilution
E. coli PRP1 Tet A = assay: microbe, parasite or virus in culture; settings: E. coli PRP1 Tet A
E. coli J3272 Tet C = assay: microbe, parasite or virus in culture; settings: E. coli J3272 Tet C
E. coli UBMS 89-1 Tet M = assay: microbe, parasite or virus in culture; settings: E. coli UBMS 89-1 Tet M
[2] = tested on: E. coli UBMS 89-2 Tet sens.; assay: MIC, agar dilution; settings: E. coli UBMS 89-2 Tet sens.
E. coli J2175 = assay: MIC, agar dilution; settings: E. coli J2175
E. coli BAJ9003 IMP MUT = assay: microbe, parasite or virus in culture; settings: E. coli BAJ9003 IMP MUT
E. coli UBMS 90-4 Tet M = assay: microbe, parasite or virus in culture; settings: E. coli UBMS 90-4 Tet M
E. coli UBMS 90-5 = assay: MIC, agar dilution
E. coli #311 (MP) = assay: MIC, agar dilution; settings: E. coli #311 (MP)
E. coli ATCC 25922 = assay: MIC, agar dilution; settings: E. coli ATCC 25922
E. coli J3272 Tet D = assay: microbe, parasite or virus in culture; settings: E. coli J3272 Tet D
S. mariescens FPOR 8733 = assay: MIC, agar dilution
[3] = tested on: Ps. acruginosa ATCC 27853; assay: MIC, agar dilution; settings: Ps. acruginosa ATCC 27853
S. aureus UBMS 88-4 = assay: MIC, agar dilution; settings: S. aureus UBMS 88-4
[4] = tested on: S. aureus UBMS 88-5 Tet M; assay: microbe, parasite or virus in culture; settings: S. aureus UBMS 88-5 Tet M
[5] = tested on: S. aureus UBMS 88-7 Tet K; assay: microbe, parasite or virus in culture; settings: S. aureus UBMS 88-7 Tet K
[6] = tested on: S. aureus UBMS 90-1 Tet M; assay: microbe, parasite or virus in culture; settings: S. aureus UBMS 90-1 Tet M
S. aureus UBMS 90-3 = assay: MIC, agar dilution; settings: S. aureus UBMS 90-3
[7] = tested on: S. aureus UBMS 90-2 Tet M; assay: microbe, parasite or virus in culture; settings: S. aureus UBMS 90-2 Tet M
S. aureus IVES 2943 = assay: MIC, agar dilution; settings: S. aureus IVES 2943
S. aureus ROSE (MP) = assay: MIC, agar dilution; settings: S. aureus ROSE (MP)
S. aureus SMITH (MP) = assay: MIC, agar dilution; settings: S. aureus SMITH (MP)
S. aureus IVES 1 983 = assay: MIC, agar dilution; settings: S. aureus IVES 1 983
S. aureus ATCC 29213 = assay: MIC, agar dilution; settings: S. aureus ATCC 29213
[8] = tested on: S. hemolyticus AVHAH 88-3; assay: MIC, agar dilution; settings: S. hemolyticus AVHAH 88-3
Enterococcus 12201 = assay: MIC, agar dilution; settings: Enterococcus 12201
E. faecalis ATCC 29212 = assay: MIC, agar dilution; settings: E. faecalis ATCC 29212
S. aureus NEMC 8769 = assay: MIC, agar dilution; settings: S. aureus NEMC 8769
[9] = tested on: tetracycline sensitive and resistant Gram-positive and Gram-negative bacteria; assay: In vitro antibacterial activity, summary in words of Table I

Row | Compound | MIC (E. coli UBMS 88-1 Tet B) | MIC [1] | MIC (E. coli PRP1 Tet A) | MIC (E. coli UBMS 89-1 Tet M) | MIC [2] | MIC (E. coli BAJ9003 IMP MUT) | MIC (E. coli #311 (MP)) | MIC (E. coli J3272 Tet D) | MIC (S. mariescens FPOR 8733) | MIC [3] | MIC (S. aureus UBMS 88-4) | MIC [4] | MIC [5] | MIC [6] | MIC (S. aureus UBMS 90-3) | MIC [7] | MIC (S. aureus IVES 2943) | MIC (S. aureus IVES 1 983) | MIC (S. aureus ATCC 29213) | MIC (Enterococcus 12201) | further results
1 | 717S-(7alpha,10aalpha)]-N-[9-(Aminocarbonyl)4,7-bis(dimethylamino)-5,5a,6,6a,7,10,10a,12-octahydro-1,8,10a,11-tetrahydroxy-10,12-dioxo-2-naphthacenyl]-4-methyl-l-piperazineacetamide dihydrochloride | 8 µg/mL | 1 µg/mL | 16 µg/mL | 8 µg/mL | 8 µg/mL | 0.5 µg/mL | 8 µg/mL | 4 µg/mL | > 32 µg/mL | > 32 µg/mL | 2 µg/mL | 4 µg/mL | 16 µg/mL | 8 µg/mL | 2 µg/mL | 2 µg/mL | > 32 µg/mL | > 32 µg/mL | 2 µg/mL | 2 µg/mL | MIC (E. coli J3272 Tet C): 8 µg/mL; MIC (E. coli J2175): 8 µg/mL; MIC (E. coli UBMS 90-4 Tet M): 8 µg/mL; MIC (E. coli UBMS 90-5): 8 µg/mL; MIC (E. coli ATCC 25922): 8 µg/mL; MIC (S. aureus ROSE (MP)): > 32 µg/mL; MIC (S. aureus SMITH (MP)): 0.5 µg/mL; MIC [8]: 16 µg/mL; MIC (E. faecalis ATCC 29212): 1 µg/mL
2 | CCCCCCCNCC(=O)Nc1cc(N(C)C)c2c(c1O)C(=O)C1=C(O)[C@]3(O)C(=O)C(C(N)=O)=C(O)[C@@H](N(C)C)C3CC1C2 (stereo partly drawn) [J, [4S-(4alpha,12aalpha)]-4,7-Bis(dimethylamino)-9-[[(heptylamino)acetyl]amino]-l,4,4a,5,5a,6,11,12a-octahydro-3,10,12,12a-tetrahydroxy-1,11-dioxo-2-naphthacenecarboxamide dihydrochloride] | 2 µg/mL | 1 µg/mL | 2 µg/mL | 0.5 µg/mL | 2 µg/mL | 0.25 µg/mL | 2 µg/mL | 2 µg/mL | 16 µg/mL | > 32 µg/mL | 0.5 µg/mL | 0.5 µg/mL | 1 µg/mL | 1 µg/mL | – | 0.5 µg/mL | 0.5 µg/mL | 1 µg/mL | 0.5 µg/mL | 0.5 µg/mL | MIC (E. coli J3272 Tet C): 2 µg/mL; MIC (E. coli J2175): 2 µg/mL; MIC (E. coli UBMS 90-4 Tet M): 2 µg/mL; MIC (E. coli UBMS 90-5): 2 µg/mL; MIC (E. coli ATCC 25922): 2 µg/mL; MIC (S. aureus NEMC 8769): no; MIC (S. aureus ROSE (MP)): 2 µg/mL; MIC [8]: 2 µg/mL
3 | CN(C)c1cc(NC(=O)CNCC2CC2)c(O)c2c1CC1CC3C(N(C)C)C(O)=C(C(N)=O)C(=O)C3(O)C(O)=C1C2=O.Cl.Cl (stereo not shown) [K] | 0.5 µg/mL | 0.12 µg/mL | 4 µg/mL | 0.5 µg/mL | 0.5 µg/mL | 0.12 µg/mL | – | 0.25 µg/mL | 8 µg/mL | 16 µg/mL | 0.5 µg/mL | 1 µg/mL | 4 µg/mL | 1 µg/mL | 0.5 µg/mL | 0.5 µg/mL | 8 µg/mL | 8 µg/mL | 1 µg/mL | – | MIC (S. aureus NEMC 8769): 1 µg/mL; MIC (S. aureus SMITH (MP)): 0.5 µg/mL; activity against E. coli tetA, E. coli tetC and E. coli tetD [9]: good activity; in vitro activity against tetracycline resistant strains containing tetM and tetB resistance determinants ([9]; S. aureus UBMS 88-5, 90-1, 90-2, E. coli UBMS 89-1, 90-4, 88-1, TN10C tetB): excellent; activity against recently isolated bacteria from clinical sources compared with minocycline ([9]; clinical isolates): superior to that of minocycline; activity against susceptible strains compared with minocycline ([9]; susceptible strains): equallyas effective as minocycline
4 | CN(C)c1cc(NC(=O)CNCC(F)(F)F)c(O)c2c1CC1CC3C(N(C)C)C(O)=C(C(N)=O)C(=O)C3(O)C(O)=C1C2=O (stereo not drawn) [S, [4S-(4alpha,12aalpha)]-4,7-Bis(dimethylamino)-1,4,4a,5,5a,6,11,12a-octahydro-3,10, 12,12a-tetrahydroxy-1,11-dioxo-9-[[[2,2,2-trifluoroethyl)amino]acetyl]amino-2-naphthacenecarboxamide] | 32 µg/mL (≈ 52.3 µM) | 16 µg/mL (≈ 26.2 µM) | – | 32 µg/mL (≈ 52.3 µM) | > 32 µg/mL | – | > 32 µg/mL | – | > 32 µg/mL | > 32 µg/mL | 4 µg/mL (≈ 6.54 µM) | 8 µg/mL (≈ 13.1 µM) | 32 µg/mL (≈ 52.3 µM) | 16 µg/mL (≈ 26.2 µM) | 4 µg/mL (≈ 6.54 µM) | 4 µg/mL (≈ 6.54 µM) | > 32 µg/mL | > 32 µg/mL | 4 µg/mL (≈ 6.54 µM) | 4 µg/mL (≈ 6.54 µM) | MIC (E. coli J2175): > 32 µg/mL; MIC (E. coli UBMS 90-5): > 32 µg/mL; MIC (E. coli ATCC 25922): > 32 µg/mL; MIC (S. aureus NEMC 8769): 4 µg/mL (≈ 6.54 µM); MIC [8]: 16 µg/mL (≈ 26.2 µM); MIC (E. faecalis ATCC 29212): 2 µg/mL (≈ 3.27 µM)
5 | [4S-(4alpha,12aalpha)]-4,7-Bis(dimethylamino)-1,4,4a,5,5a,6,11,12a-octahydro-3,10, 12,12a-tetrahydroxy-1,11-dioxo-9-[[(undecylamino)acetyl]amino]-2-naphthacenecarboxamide dihydrochloride | 32 µg/mL | 2 µg/mL | 32 µg/mL | 16 µg/mL | – | 1 µg/mL | 8 µg/mL | 32 µg/mL | > 32 µg/mL | > 32 µg/mL | 0.5 µg/mL | 16 µg/mL | 2 µg/mL | 16 µg/mL | 0.5 µg/mL | 4 µg/mL | – | – | 1 µg/mL | 4 µg/mL | MIC (E. coli UBMS 90-4 Tet M): 32 µg/mL; MIC (S. aureus NEMC 8769): 0.5 µg/mL; MIC (S. aureus ROSE (MP)): 16 µg/mL; MIC (S. aureus SMITH (MP)): 0.5 µg/mL; MIC (E. faecalis ATCC 29212): 2 µg/mL
6 | [4S-(4alpha,12aalpha)]-4,7-bis(dimethylamino)-1,4,4a,5,5a,6,11,12a-octahydro-3,10, 12,12a-tetrahydroxy-1,11-dioxo-9-[[[(2pyridinylmethyl)amino]acetyl]amino-2-naphthacenecarboxamide dihydrochloride | 16 µg/mL | 2 µg/mL | 32 µg/mL | 8 µg/mL | 16 µg/mL | 1 µg/mL | 8 µg/mL | 8 µg/mL | > 32 µg/mL | > 32 µg/mL | 8 µg/mL | 8 µg/mL | 32 µg/mL | 8 µg/mL | 4 µg/mL | 8 µg/mL | > 32 µg/mL | > 32 µg/mL | 8 µg/mL | 4 µg/mL | MIC (E. coli J3272 Tet C): 16 µg/mL; MIC (E. coli J2175): 16 µg/mL; MIC (E. coli UBMS 90-4 Tet M): 8 µg/mL; MIC (E. coli UBMS 90-5): 16 µg/mL; MIC (E. coli ATCC 25922): 8 µg/mL; MIC (S. aureus NEMC 8769): 8 µg/mL; MIC (S. aureus SMITH (MP)): 4 µg/mL; MIC [8]: 16 µg/mL; MIC (E. faecalis ATCC 29212): 2 µg/mL
